Results on two molecules are retold here after patent US12202805B2, “Process for preparing (5S)-{[2-(4-carboxyphenyl)ethyl] |2-(2-{|3-chloro-4'-(trifluoromethyl)biphenyl-4-yl]methoxy}phenyl)ethyl]aminol-5,6,7,8-tetrahydroquinoline-2-carboxylic acid and its crystalline forms for use as pharmaceutically active compound” (Bayer Aktiengesellschaft, priority 2021, dated 2025).

For data set [1], the system named is thromboxane A2 challenged PAH-minipig. Description: Haemodynamics in the anesthetized thromboxane challenged minipig, inhaled nebulized solution (PAP, BP). In kind it is in vivo, Göttingen Minipigs. The protocol:
E-1 Haemodynamics in the Anesthetized Thromboxane Challenged Minipig
Lung Selectivity and Duration of Action
Healthy Göttingen Minipigs® Ellegaard (Ellegaard, Denmark) of both sexes and having a weight of 2-6 kg were used. The animals were sedated by i.m. administration of about 25 mg/kg ketamine and about 10 mg/kg azaperone. Anaesthesia was initiated by i.v. administration of about 2 mg/kg ketamine and about 0.3 mg/kg midazolam. Maintenance of anaesthesia was by i.v. administration of about 7.5-30 mg/kg/h ketamine and about 1-4 mg/kg/h midazolam (rate of infusion 1-4 ml/kg/h) and about 150 μg/kg/h pancuronium bromide (for example Pancuronium-Actavis). After intubation, the animals were ventilated by the ventilator at a constant respiratory volume (10-12 ml/kg, 35 breaths/min; Avea®, Viasys Healthcare, USA, or Engström Carestation, GE Healthcare, Freiburg, Germany) such that an end-tidal CO2 concentration of about 5% was achieved. Ventilation was performed with room air, enriched with about 40% oxygen (normoxia). For the measurement of the haemodynamic parameters such as pulmonary arterial pressure (PAP), blood pressure (BP) and heart rate (HR), catheters were inserted into the carotid artery to measure the blood pressure, and a Swan-Ganz® catheter was introduced in a flow-directed manner via the jugular vein into the pulmonary artery. The haemodynamic signals were recorded and evaluated by means of pressure transducers (Combitransducer, B. Braun, Melsungen, Germany)/amplifiers and Ponemah® as data acquisition software.
After the instruments have been placed into the animals, continuous infusion of a thromboxane A2 analog was initiated to increase the pulmonary arterial pressure. About 0.3-0.75 μg/kg/min of 9,11-didesoxy-9α,11α-epoxymethanoprostaglandine F2α (U-44069; Sigma, cat. no. D0400, or Cayman Chemical Company, cat. no. 16440), dissolved in physiological saline, were infused to achieve an increase of the mean pulmonary arterial pressure to values of over 25 mmHg. 30 minutes after the start of the infusion, a plateau was reached, and the experiment was started.
The test substances were administered as i.v. infusion or by inhalation. For the preparation of the solution for inhalation, the following procedure was adopted: For an animal having a weight of 4 kg, to prepare the stock solution (300 μg/kg), 1.2 mg of the test compound were weighed out and dissolved in a total volume of 3 ml (1% DMSO, 99% 0.2% strength citric acid solution, 1 n aqueous sodium hydroxide solution to adjust the pH to 8). The solution was then diluted to the concentration employed using 0.2% strength citric acid which had been adjusted to pH 8 beforehand with aqueous sodium hydroxide solution. In each test, 3 ml of the solution of test compound per 4 kg animal were nebulized in the inhalation arm of the respiratory circuit using the Aeroneb® Pro nebulizer system. The mean nebulization time was about 7 min from the start of the nebulization.
With respect to a prediction of the duration of action for human studies comparative example 11 was compared in the PAH minipig model after inhaled application to Ventavis® (=Iloprost, 10 μg/kg nominal dose), which we used as a clinical reference. […] Therefore, the duration of action is more than 6 times longer compared to Ventavis in this preclinical animal model.

A short description of data set [2]: Filter experiments for deposited lung dose in the PAH minipig model and prediction of human dose. In kind it is in vivo. The procedure: The anesthetized thromboxane A2 challenged PAH-minipig model (see experimental part E-1) is considered to be the most relevant and sensitive model for the prediction of the human minimal effective and effective doses (MED, ED). To determine effective LDs, experiments were repeated with the difference that absorbing filters were attached at the end of the tubes to determine the deposited lung dose. […] Assuming a minimal effective ND of 3 μg/kg (5% reduction in PAP) the minimal effective deposited LD is considered as 0.15 μg/kg.
The nominal doses of 3, 10, 30 and 100 μg/kg of the minipig model were multiplied by the filter deposition factor of 5% resulting in 0.15, 0.5, 1.5 and 5 μg/kg lung deposited doses in the minipig. These values were multiplied by 60 kg to achieve the lung dose in humans. Thus, the FPD reflecting the PAP reduction for a 60 kg human are calculated to be 9, 30, 90 and 300 μg.
Thus, via a direct up-scaling from minipig, the predictive MED (5% PAP reduction) for a human based on a 60 kg body weight is calculated to be 9 μg LDD, not considering protein binding within the respiratory tract. As a surrogate for unbound concentrations, which are the likely active concentrations in the lung, we considered respective differences in fractions unbound in plasma of minipig and human. […]

A short description of data set [3]: Protein binding via Transil assay, monkey plasma. It is filed as in vitro ADME. The procedure:
Protein Binding of Comparative Example 11 and Comparative Example 1 was Analyzed Via Transil Assay, Described Below.
The distribution of a test substance between Transil® (phosphatidylcholine lipid bilayers immobilized on silica beads) and plasma is a characteristic feature of any pharmaceutical compound and is dependent on its extent of binding to plasma proteins. By comparing the distribution between Transil® and buffer with the distribution between Transil® and plasma of any species of interest, the unbound fraction in the plasma of the respective animal species can be calculated in vitro. The respective plasma and buffer concentrations were determined via a radioactivity analysis. A detailed description of the method and its validation was published by Schuhmacher et al. (2).

Data set [4] concerns chronic ovalbumin asthma mice model. Put plainly: Chronic ovalbumin asthma mice model. The settings on record: mouse, in vivo.

With `O=C(O)c1ccc(CCN(CCc2ccccc2OCc2ccc(-c3ccc(C(F)(F)F)cc3)cc2Cl)[C@H]2CCCc3nc(C(=O)O)ccc32)cc1` [comparative example 11, (5S)-5-{[2-(4-carboxyphenyl)ethyl][2-(2-{[3-chloro-4′-(trifluoromethyl)[biphenyl]-4-yl]methoxy}phenyl)ethyl]amino}-5,6,7,8-tetrahydroquinoline-2-carboxylic acid], the “duration of dose dependent efficacy (PAP)” value in data set [1] (inhaled, all doses (10, 30, 100 μg/kg nominal dose), 240 min observation interval) was ≥ 240 min. The “time of maximum effect after start inhalation” value in data set [1] (nebulized liquid formulations) is “about 90 min”. Moreover, the “duration of action, times longer compared to Ventavis” value in data set [1] (preclinical animal model) is “more than 6 times”. Also, in data set [2] (with or without effect of different protein binding), the “minimal effective lung deposited dose for a human patient of 60 kg body weight” value was 9 to 41 µg. Besides, the “free fraction, times lower than comparative example 1” value in data set [3] amounted to 2 times. In addition, the “effect on airway hyper-responsiveness and inflammation” value in data set [4] is “inhibitory effect on airway hyper-responsiveness and inflammation”.
For `O=C(O)c1ccc(CCN(CCc2ccccc2OCc2ccc(-c3ccc(C(F)(F)F)cc3)cc2Cl)[C@H]2CCCc3nc(C(=O)O)ccc32)cc1` [example 2, (5S)—{[2-(4-Carboxyphenyl)ethyl][2-(2-{[3-chloro-4′-(trifluoromethyl)biphenyl-4-yl]methoxy}phenyl)-ethyl]amino}-5,6,7,8-tetrahydroquinoline-2-carboxylic acid as Monohydrate II], in data set [1] (nebulized solution, inhaled), the “minimal effective nominal dose (5% reduction in PAP)” value is 3 µg/kg. Further, the “ratio of fraction unbound minipig/human” value in data set [2] (plasma) is 4.55.
